Test [1] deals with T1, Muscarinic acetylcholine receptor M1 (Homo sapiens) (UniProt P11229).
T1 sequence (whole entry): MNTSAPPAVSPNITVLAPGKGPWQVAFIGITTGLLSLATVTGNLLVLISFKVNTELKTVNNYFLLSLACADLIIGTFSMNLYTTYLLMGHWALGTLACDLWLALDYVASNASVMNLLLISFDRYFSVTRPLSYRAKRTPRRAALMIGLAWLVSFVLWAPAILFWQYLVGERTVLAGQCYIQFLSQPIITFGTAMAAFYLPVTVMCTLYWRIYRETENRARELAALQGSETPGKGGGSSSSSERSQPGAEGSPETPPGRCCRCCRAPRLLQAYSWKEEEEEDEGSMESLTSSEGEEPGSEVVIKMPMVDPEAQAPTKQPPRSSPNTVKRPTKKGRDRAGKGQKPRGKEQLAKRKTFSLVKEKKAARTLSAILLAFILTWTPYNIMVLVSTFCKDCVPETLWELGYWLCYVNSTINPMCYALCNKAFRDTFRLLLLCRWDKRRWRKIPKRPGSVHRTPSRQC
The experiment in a line: Displacement of radioligand from muscarinic M1 receptor at 10 uM.

The target of test [2] is Substance-P receptor (Homo sapiens) (UniProt P25103). As to the kind of experiment: Displacement of [125I]BH-SP from NK1 receptor in human U373MG cells at 10 uM. In kind it is cell-based. As to conditions: U-373MG ATCC.
Substance-P receptor (Homo sapiens), sequence (P25103 whole entry): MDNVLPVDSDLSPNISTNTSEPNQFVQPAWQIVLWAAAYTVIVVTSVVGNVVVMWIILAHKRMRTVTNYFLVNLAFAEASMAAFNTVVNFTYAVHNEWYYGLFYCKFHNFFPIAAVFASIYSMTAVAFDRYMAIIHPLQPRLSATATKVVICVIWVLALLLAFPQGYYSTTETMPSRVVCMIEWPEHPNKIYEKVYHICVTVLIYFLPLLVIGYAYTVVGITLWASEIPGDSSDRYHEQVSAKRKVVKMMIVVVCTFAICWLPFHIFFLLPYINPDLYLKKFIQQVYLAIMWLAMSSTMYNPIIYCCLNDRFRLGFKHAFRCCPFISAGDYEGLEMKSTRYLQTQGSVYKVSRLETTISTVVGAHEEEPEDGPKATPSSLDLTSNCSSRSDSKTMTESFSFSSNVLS
Test [3] in a line: Binding affinity to vasopressin V1 receptor at 10 uM by displacement assay.
Test [4] concerns the target Histamine H1 receptor (Homo sapiens) (UniProt P35367). The experiment in a line: Displacement of radioligand from histamine H1 receptor at 10 uM.
The target of test [5] is T2, Adenosine receptor A1 (Homo sapiens) (UniProt P30542).
T2 sequence (whole entry): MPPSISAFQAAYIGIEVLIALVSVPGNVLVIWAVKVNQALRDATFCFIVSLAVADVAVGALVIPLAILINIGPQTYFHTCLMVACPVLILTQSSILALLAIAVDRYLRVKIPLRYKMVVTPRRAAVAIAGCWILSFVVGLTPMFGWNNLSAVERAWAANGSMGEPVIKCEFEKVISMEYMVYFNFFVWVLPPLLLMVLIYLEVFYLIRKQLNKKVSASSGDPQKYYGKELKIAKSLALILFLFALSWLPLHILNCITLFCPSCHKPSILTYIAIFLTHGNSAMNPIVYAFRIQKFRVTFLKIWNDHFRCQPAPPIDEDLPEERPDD
The experiment in a line: Displacement of [3H]CCPA from human recombinant adenosine A1 receptor expressed in CHO cells at 10 uM. It is filed as cell-based. (In general: Displacement assays read how much labelled ligand stays bound in the presence of the test substance.)

The nature of test [6]: Displacement of radioligand from opiate receptor at 10 uM.
Test [7] concerns the target Sodium-dependent dopamine transporter (Homo sapiens) (UniProt Q01959). The experiment in a line: Binding affinity to DAT at 10 uM by displacement assay.
The target in test [8] is T3, Endothelin-1 receptor (Homo sapiens) (UniProt P25101).
T3 sequence (whole entry): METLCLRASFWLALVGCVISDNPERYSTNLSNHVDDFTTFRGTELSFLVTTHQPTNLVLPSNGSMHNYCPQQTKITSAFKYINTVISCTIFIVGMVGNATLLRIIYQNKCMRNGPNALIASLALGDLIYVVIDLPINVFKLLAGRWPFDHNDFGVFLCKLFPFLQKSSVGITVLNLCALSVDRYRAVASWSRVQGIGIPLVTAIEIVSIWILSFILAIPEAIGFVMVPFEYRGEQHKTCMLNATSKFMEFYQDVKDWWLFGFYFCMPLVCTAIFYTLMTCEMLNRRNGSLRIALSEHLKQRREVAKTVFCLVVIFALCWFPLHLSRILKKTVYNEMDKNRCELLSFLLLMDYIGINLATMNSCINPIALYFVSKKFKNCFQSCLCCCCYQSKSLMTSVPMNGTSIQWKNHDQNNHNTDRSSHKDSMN
As to the kind of experiment: Displacement of [125I]endothelin-1 from human recombinant endothelin A receptor expressed in CHO cells. It is filed as cell-based.

Test [9] concerns the target Adrenergic receptor alpha-1 (Rattus norvegicus) (UniProt P15823+P23944+P43140). As to the kind of experiment: Displacement of [3H]prazosin from adrenergic receptor 1 alpha in rat cerebral cortex at 10 uM. It is filed as tissue-based.
Test [10] addresses D(1A) dopamine receptor (Homo sapiens) (UniProt P21728). The experiment in a line: Displacement of radioligand from dopamine D1 receptor at 10 uM.
In test [11] the target is Beta-1 adrenergic receptor (Homo sapiens) (UniProt P08588). As to the kind of experiment: Displacement of [3H](-)CGP12177 from human recombinant beta 1 adrenergic receptor expressed in HEK293 cells at 10 uM. In kind it is cell-based.
Beta-1 adrenergic receptor (Homo sapiens), sequence (P08588 whole entry, looked up): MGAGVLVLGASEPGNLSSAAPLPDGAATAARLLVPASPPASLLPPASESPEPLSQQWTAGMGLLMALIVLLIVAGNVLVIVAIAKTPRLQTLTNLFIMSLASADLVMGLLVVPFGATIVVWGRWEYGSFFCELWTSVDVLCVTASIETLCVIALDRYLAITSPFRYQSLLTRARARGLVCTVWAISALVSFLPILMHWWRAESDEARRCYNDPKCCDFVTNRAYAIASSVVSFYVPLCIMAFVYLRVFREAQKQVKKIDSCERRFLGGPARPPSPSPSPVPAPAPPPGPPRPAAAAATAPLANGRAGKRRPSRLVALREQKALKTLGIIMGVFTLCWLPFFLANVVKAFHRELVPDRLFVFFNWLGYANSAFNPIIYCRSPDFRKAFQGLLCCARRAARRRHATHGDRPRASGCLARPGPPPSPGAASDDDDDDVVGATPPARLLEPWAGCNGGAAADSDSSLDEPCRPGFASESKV
Test [12] is described as follows: Binding affinity to central-type benzodiazepine receptor at 10 uM by displacement assay.
Test [13] is described as follows: Displacement of radioligand from NMDA receptor at 10 uM.
The target of test [14] is T4, B2 bradykinin receptor (Homo sapiens) (UniProt P30411).
T4 sequence (whole entry): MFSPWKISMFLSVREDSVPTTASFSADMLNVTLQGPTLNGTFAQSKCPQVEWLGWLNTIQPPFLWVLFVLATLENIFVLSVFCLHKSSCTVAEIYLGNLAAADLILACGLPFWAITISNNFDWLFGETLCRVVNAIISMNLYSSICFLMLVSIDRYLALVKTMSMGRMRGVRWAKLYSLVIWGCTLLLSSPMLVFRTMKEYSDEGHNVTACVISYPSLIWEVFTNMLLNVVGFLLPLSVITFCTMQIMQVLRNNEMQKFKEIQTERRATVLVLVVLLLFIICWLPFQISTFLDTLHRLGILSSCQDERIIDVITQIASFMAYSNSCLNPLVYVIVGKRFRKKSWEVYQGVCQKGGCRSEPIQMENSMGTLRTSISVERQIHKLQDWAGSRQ
As to the kind of experiment: Displacement of [3H]bradykinin from human recombinant bradykinin B2 receptor expressed in CHO cells. It is filed as cell-based.

For test [15], the target named is Adenosine receptor A2a (Homo sapiens) (UniProt P29274). As to the kind of experiment: Displacement of [3H]CGS21680 from human recombinant adenosine A2A receptor expressed in HEK293 cells at 10 uM. It is filed as cell-based.
Adenosine receptor A2a (Homo sapiens), sequence (P29274 whole entry): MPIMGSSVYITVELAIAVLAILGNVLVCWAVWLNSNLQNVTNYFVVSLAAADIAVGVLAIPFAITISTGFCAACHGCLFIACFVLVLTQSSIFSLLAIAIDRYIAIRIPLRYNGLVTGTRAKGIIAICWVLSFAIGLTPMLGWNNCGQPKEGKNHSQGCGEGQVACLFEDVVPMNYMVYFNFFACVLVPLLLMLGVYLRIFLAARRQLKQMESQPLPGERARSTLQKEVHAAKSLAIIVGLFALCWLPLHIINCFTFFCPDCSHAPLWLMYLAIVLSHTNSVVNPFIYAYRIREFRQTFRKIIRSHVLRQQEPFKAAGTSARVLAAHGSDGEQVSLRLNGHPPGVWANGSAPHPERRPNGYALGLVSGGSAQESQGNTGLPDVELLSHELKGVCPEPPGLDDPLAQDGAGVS
Test [16] has as its target Sodium-dependent serotonin transporter (Homo sapiens) (UniProt P31645). As to the kind of experiment: Binding affinity to SERT at 10 uM by displacement assay.
In test [17] the target is T5, Cholecystokinin receptor type A (Homo sapiens) (UniProt P32238).
T5 sequence (whole entry): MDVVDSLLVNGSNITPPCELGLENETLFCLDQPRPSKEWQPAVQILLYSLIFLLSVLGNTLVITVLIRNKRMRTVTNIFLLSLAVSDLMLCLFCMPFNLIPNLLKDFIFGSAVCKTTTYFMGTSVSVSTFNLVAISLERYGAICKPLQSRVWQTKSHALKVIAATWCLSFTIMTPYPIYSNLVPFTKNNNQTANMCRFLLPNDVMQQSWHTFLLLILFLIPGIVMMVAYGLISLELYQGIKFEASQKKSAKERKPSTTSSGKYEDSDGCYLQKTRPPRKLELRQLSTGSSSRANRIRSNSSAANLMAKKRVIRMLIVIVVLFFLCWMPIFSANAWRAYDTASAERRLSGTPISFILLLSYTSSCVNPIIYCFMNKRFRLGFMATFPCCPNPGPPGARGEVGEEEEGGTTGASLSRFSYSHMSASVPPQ
As to the kind of experiment: Displacement of radioligand from cholecystokinin A receptor at 10 uM.

Histamine H1 receptor (Homo sapiens), sequence (P35367 whole entry): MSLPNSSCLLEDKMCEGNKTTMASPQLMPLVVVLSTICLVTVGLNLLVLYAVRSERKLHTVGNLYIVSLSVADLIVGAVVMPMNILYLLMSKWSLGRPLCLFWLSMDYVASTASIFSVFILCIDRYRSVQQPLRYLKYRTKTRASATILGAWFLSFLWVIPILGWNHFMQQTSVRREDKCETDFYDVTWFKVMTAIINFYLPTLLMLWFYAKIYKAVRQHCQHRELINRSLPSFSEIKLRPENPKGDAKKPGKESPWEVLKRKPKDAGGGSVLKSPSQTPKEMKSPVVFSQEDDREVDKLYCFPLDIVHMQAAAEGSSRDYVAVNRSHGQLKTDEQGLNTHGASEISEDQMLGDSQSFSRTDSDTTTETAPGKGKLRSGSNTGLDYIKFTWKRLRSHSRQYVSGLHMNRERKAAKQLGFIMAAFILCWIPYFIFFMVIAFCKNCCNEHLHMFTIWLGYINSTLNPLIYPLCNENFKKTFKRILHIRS
Sodium-dependent serotonin transporter (Homo sapiens), sequence (P31645 whole entry, looked up): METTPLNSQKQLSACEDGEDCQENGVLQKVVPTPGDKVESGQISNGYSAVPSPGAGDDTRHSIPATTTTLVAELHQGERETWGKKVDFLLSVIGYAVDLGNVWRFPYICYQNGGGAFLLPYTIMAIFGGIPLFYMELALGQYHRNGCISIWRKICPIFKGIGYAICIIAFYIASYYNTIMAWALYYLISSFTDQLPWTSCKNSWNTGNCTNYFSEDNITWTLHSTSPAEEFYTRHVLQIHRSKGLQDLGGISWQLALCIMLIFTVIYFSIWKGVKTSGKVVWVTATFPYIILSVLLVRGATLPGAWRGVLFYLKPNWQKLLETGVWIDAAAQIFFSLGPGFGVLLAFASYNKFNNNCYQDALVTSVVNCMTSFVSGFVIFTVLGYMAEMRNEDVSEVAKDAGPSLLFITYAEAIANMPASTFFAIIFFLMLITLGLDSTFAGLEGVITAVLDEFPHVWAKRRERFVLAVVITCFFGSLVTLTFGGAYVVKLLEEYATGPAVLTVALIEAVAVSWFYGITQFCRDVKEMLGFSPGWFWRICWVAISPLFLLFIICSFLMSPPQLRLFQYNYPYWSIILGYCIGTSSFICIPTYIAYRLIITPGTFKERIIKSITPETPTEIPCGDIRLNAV
D(1A) dopamine receptor (Homo sapiens), sequence (P21728 whole entry): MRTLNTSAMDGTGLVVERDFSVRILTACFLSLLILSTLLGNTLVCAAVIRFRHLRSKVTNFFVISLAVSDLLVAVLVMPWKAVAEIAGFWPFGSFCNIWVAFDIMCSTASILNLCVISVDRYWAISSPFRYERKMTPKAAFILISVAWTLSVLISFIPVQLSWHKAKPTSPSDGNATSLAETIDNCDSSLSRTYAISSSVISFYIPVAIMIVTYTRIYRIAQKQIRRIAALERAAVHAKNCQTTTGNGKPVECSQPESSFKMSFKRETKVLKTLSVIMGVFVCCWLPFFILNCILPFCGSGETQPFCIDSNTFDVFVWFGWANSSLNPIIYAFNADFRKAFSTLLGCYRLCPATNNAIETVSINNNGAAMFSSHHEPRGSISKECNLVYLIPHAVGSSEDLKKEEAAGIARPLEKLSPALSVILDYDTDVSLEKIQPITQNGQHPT
Sodium-dependent dopamine transporter (Homo sapiens), sequence (Q01959 whole entry): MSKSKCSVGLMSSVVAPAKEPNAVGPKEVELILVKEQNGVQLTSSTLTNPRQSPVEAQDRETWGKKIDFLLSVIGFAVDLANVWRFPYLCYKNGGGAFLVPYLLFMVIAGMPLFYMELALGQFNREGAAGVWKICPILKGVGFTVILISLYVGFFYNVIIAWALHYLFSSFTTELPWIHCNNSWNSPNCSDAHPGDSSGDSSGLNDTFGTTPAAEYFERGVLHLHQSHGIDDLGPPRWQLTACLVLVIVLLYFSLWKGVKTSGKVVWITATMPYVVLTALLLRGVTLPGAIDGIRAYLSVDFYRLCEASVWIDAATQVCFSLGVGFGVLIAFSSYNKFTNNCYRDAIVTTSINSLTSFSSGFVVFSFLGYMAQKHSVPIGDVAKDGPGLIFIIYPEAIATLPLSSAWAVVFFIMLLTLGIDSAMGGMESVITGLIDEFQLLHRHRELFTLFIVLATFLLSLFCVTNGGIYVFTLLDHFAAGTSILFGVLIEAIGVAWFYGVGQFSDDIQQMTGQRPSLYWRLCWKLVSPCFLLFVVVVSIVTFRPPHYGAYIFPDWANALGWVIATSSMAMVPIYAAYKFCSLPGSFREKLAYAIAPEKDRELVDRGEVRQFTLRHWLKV

For the molecule `CC(C)OC(=O)N/N=c1\sc2cc(OC(F)(F)F)ccc2n1C`, the Activity in test [1] turned out to be 21%; in test [2], 10%; in test [3] it was 0%; in test [4], 0%; in [5] it was 11%; in test [6] it was 11%. Besides, the Activity in test [7] was determined as 0%; in test [8], 0%; in test [9], 11%; in test [10], 0%; in test [11] it was 11%; in test [12], 22%. Moreover, the Activity was found to be 0% in [13]; 0% in [14]; 10% in [15]; 14% in test [16]; 11% in test [17].

Take `Cn1/c(=N/NC(=O)CC2CCCC2)sc2cc(OC(F)(F)F)ccc21`: the Activity in [1] stood at 34%; in test [2] it was 21%; in [3] it was 22%; in test [4], 0%; in test [5] it was 0%; in test [6], 16%. In addition, the Activity in [7] is 21%; in test [8], 0%; in [9], 0%; in test [10], 0%; in test [11] it was 0%; in [12] it was 0%. Moreover, the Activity in test [13] was 0%; in [14], 49%; in [15], 12%; in test [16], 20%; in [17], 53%.

Turning to `Cn1/c(=N/NC(=O)CC(C)(C)C)sc2cc(OC(F)(F)F)ccc21`, the Activity in test [1] is 0%; in [2], 0%; in [3], 12%; in test [4], 22%; in [5] it was 0%; in test [6], 0%. In addition, the Activity in test [7], in test [8], in test [9], in test [10], in test [11] and in [12] was 0% each time. Also, the Activity in test [13], in test [14], in test [15], in [16] and in test [17] was 0% throughout.

These data come from ChEMBL document CHEMBL1157731, “Novel KCNQ2/Q3 agonists as potential therapeutics for epilepsy and neuropathic pain” (J Med Chem, 2010).
